From PMC6259253, “Synthesis of Benzofuran Derivatives via Rearrangement and Their Inhibitory Activity on Acetylcholinesterase” (Molecules, 2010)

Target: T1, AChE (Rattus norvegicus, UniProt P37136)
T1 construct: utilizing freshly prepared AChE from rats brain homogenate; from tissue; host or cells: rat whole brain except cerebellum, homogenate
Assay: biochemical
Conditions: AChE from rat brain homogenate; Ellman's method; means ± standard deviation of three independent experiments; read-out: AChE inhibition (IC50)
Procedure: AChE activity was measured in duplicate by the spectrophotometric method reported by Ellman et al. with some modifications, mainly involving the source of the enzyme and the reference compound. Rat brain homogenate was used as the enzyme source. The whole brain except for the cerebellum was homogenized in nine volumes of 100 mM sodium phosphate buffer (pH 7.0). The test compounds were dissolved in dimethyl sulphoxide (DMSO). The AChE activity was expressed as a change in OD at 412 nm.

T1 sequence (P37136 32-614): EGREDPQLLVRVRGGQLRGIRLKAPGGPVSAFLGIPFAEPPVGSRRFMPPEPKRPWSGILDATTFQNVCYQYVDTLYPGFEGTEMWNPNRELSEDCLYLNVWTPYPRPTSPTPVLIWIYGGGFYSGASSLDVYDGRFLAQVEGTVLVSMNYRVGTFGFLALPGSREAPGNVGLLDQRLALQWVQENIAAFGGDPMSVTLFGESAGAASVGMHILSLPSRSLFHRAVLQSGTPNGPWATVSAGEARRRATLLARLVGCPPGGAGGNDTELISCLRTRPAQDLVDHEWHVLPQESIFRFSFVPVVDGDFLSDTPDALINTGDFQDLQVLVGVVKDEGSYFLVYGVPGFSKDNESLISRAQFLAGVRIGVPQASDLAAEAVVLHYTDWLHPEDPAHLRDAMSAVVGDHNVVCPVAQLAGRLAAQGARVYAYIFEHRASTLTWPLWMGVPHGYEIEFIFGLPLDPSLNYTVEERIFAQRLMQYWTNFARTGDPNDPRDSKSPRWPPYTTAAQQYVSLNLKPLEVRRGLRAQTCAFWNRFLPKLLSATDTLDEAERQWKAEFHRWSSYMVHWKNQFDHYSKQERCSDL

Structure (SMILES) | IC50 [µM]
Cc1ccc2oc(C(=O)N3CCN(c4ccccc4C)CC3)c(N3CCOCC3)c2c1 [Compound A2, (4-o-Tolylpiperazin-1-yl)-(5-methyl-3-morpholinobenzofuran-2-yl) methanone] | 32 ± 0.1
COc1ccc(N2CCN(C(=O)c3oc4ccc(C)cc4c3N3CCOCC3)CC2)cc1 [Compound A5, (4-(4-Methoxyphenyl)piperazin-1-yl) (5-methyl-3-morpholinobenzofuran-2-yl) methanone] | 21 ± 0.1
Cc1ccc(N2CCN(C(=O)c3oc4ccc(C)cc4c3N3CCOCC3)CC2)cc1 [Compound A4, (4-p-Tolylpiperazin-1-yl)-(5-methyl-3-morpholinobenzofuran-2-yl) methanone] | 11 ± 0.2
